pIC50: −log10 of the molar value.
Target: Kv1.5 (Homo sapiens, UniProt P22460)
Experiment: Kv1.5 inhibition assay (IKur inhibitor assay per cited references)
Format: cell-based
Details: for pIC50: read-out: Kv1.5 IC50; for inhibition at 0.3 µM / Kv1.5% inhibition: at 0.3 μM
From the text: Assays to determine the degree of activity of a compound as an IKur inhibitor are well known in the art and are described in references such as J. Gen. Physiol. Apr.; 101 (4):513-43, and Br. J. Pharmacol. 1995 May; 115(2):267-74.

Chain of Kv1.5 (P22460 whole entry): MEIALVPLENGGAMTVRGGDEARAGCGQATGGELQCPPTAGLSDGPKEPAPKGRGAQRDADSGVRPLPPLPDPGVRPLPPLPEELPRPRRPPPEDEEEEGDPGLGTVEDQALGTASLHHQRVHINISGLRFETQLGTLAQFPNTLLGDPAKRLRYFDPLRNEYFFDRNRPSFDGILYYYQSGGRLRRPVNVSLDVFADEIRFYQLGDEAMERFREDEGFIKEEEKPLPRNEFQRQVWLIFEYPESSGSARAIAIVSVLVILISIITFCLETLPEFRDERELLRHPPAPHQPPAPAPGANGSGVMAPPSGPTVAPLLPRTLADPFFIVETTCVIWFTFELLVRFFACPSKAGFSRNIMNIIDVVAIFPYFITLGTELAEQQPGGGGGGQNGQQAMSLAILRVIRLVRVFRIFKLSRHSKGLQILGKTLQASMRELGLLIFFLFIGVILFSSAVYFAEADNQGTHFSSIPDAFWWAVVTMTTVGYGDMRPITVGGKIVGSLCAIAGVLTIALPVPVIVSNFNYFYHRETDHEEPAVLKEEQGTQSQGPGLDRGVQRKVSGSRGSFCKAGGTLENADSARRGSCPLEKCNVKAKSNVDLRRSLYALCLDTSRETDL

| inhibition at 0.3 µM [%] | SMILES | also measured |
| --- | --- | --- |
| 81.8 | COc1ccc(S(=O)(=O)C2=C(C)Nc3cc(C(F)(F)F)nn3C2c2ccc(C)c(F)c2)cc1 (single isomer, unassigned) [Example 32 Isomer 1, 7-(3-Fluoro-4-methylphenyl)-6-(4-methoxyphenylsulfonyl)-5-methyl-2-(trifluoromethyl)-4,7-dihydropyrazolo[1,5-a]pyrimidine] |  |
|  | CC1=C(S(=O)(=O)c2ccc(Cl)cc2)C(CC(C)C)n2nc(C(F)(F)F)cc2N1 (single isomer, unassigned) [Example 45 Isomer 1, 6-(4-Chlorophenylsulfonyl)-7-isobutyl-5-methyl-2-(trifluoromethyl)-4,7-dihydropyrazolo[1,5-a]pyrimidine] | pIC50: 6.60 |
|  | CC1=C(S(=O)(=O)c2ccc(Cl)cc2)C(c2ccc(F)cc2)n2nc(C(F)(F)F)cc2N1 (single isomer, unassigned) [Example 43 Isomer 2, 6-(4-Chlorophenylsulfonyl)-7-(4-fluorophenyl)-5-methyl-2-(trifluoromethyl)-4,7-dihydropyrazolo[1,5-a]pyrimidine] | Kv1.5% inhibition: 87.3% |
| 37.2 | CC1=C(S(=O)(=O)Cc2ccccc2)C(c2ccc(Cl)c(Cl)c2)n2nc(C(F)(F)F)cc2N1 (racemic) [Example 16, 6-(Benzylsulfonyl)-7-(3,4-dichlorophenyl)-5-methyl-2-(trifluoromethyl)-4,7-dihydropyrazolo[1,5-a]pyrimidine] |  |
|  | CC1=C(S(=O)(=O)c2ccc(C)cc2)C(c2ccc(Cl)c(Cl)c2)n2nc(C)cc2N1 (single isomer, unassigned) [Example 5 Isomer 1, 7-(3,4-Dichlorophenyl)-2,5-dimethyl-6-tosyl-4,7-dihydropyrazolo[1,5-a]pyrimidine] | pIC50: 7.32 |
|  | CC1=C(C(=O)N(C)S(=O)(=O)c2ccccc2)C(c2ccc(Cl)c(Cl)c2)n2nc(C)cc2N1 (single isomer, unassigned) [Example 79 Isomer 2, 7-(3,4-Dichlorophenyl)-N,2,5-trimethyl-N-(phenylsulfonyl)-4,7-dihydropyrazolo[1,5-a]pyrimidine-6-carboxamide] | Kv1.5% inhibition: 88% |
| 59.7 | CC1=C(S(=O)(=O)c2ccc(C(F)(F)F)cc2)C(c2ccc(Cl)c(Cl)c2)n2nc(C)cc2N1 (single isomer, unassigned) [Example 9 Isomer 2, 7-(3,4-Dichlorophenyl)-2,5-dimethyl-6-(4-(trifluoromethyl)phenylsulfonyl)-4,7-dihydropyrazolo[1,5-a]pyrimidine] |  |
| 83.2 | CC1=C(S(=O)(=O)N(C)c2ccccc2)C(c2ccc(Cl)c(Cl)c2)n2nc(C)cc2N1 (racemic) [Example 60, 7-(3,4-Dichlorophenyl)-N,2,5-trimethyl-N-phenyl-4,7-dihydropyrazolo[1,5-a]pyrimidine-6-sulfonamide] |  |
